Measured values as given in EPA's ToxValDB 9.5.

How the values were obtained:
Rattus norvegicus [1] = tested on: Rattus norvegicus
Oryctolagus sp. [2] = conditions: duration: 7 days, oral, gavage, New Zealand
Oryctolagus sp. [3] = experiment: LD0; higher = less toxic; conditions: acute; dermal; occlusive; New Zealand
Cavia porcellus [4] = conditions: acute, duration: 1 days, oral, gavage, M, Guinea Pig
Rattus norvegicus [5] = conditions: short-term; duration: 3 days; injection; subcutaneous; F; Crj:CD; uterus: uterine dry weight (absolute)
Rattus norvegicus [6] = tested on: Rattus norvegicus; remark: listed apart in the source
Gallus gallus = conditions: repeat dose other; oral
Rattus norvegicus [7] = experiment: LD0; higher = less toxic; conditions: acute; inhalation; Crj:CD
Macaca mulatta = conditions: repeat dose other; oral
Sus scrofa = conditions: repeat dose other; oral; diet; Not specified; Emesis
Rattus norvegicus [8] = conditions: oral
Canidae [9] = conditions: chronic; duration: 2 years; oral; diet; Dog Other; Kidney: Effects
Canidae [10] = conditions: chronic; duration: 2 years; oral; diet; M/F; Dog Other; renal tubular epithelial vacuolation
Oryctolagus sp. [11] = conditions: developmental; duration: 12 days; oral; gavage; F; New Zealand; developmental
Oryctolagus sp. [12] = conditions: short-term; duration: 13 days; oral; gavage; Gastrointestinal system: Decreased stool quantity + Nervous system: Hyperirritability + Whole body: Decreased food consumption + Whole body…
Oryctolagus sp. [13] = conditions: developmental; oral; F; reduced stool quantity, food consumption and body weight gain hyperirritability (maternal effects)
Neovison sp. = conditions: repeat dose other; oral; Mink
Rattus norvegicus [14] = conditions: repeat dose other; oral
Cricetulus sp. = conditions: acute; inhalation; Golden Syrian
Canidae [15] = conditions: repeat dose other; inhalation; Dog Other
Cavia sp. = conditions: repeat dose other; inhalation
Cavia porcellus [16] = conditions: repeat dose other; oral; Guinea Pig
Coturnix japonica = conditions: repeat dose other; oral
[17] = short-term, duration: 28 days, oral, diet, Fischer 344
[18] = short-term, duration: 28 days, gavage, M, Sprague-Dawley, Clinical Observation: Salivationlocomotor activity decrease, Soft stool/diarrhea + Urinalysis: Brownish urine Occult blood + Hematology: PT …

`Nc1ccc([N+](=O)[O-])cc1` [4-Nitrobenzenamine] was tested, and the LD50 (Rattus norvegicus [1]; acute, oral, gavage, Sprague-Dawley) was 1400 mg/kg, the NOAEL (Rattus norvegicus [1]; reproduction developmental, duration: 90 days, oral, gavage, Sprague-Dawley) was < 3 mg/kg-day and the NOAEL (Rattus norvegicus [1]; reproduction developmental, duration: 167 days, oral, gavage, Sprague-Dawley, generation: F0) was 1.5 mg/kg-day. It also gave an NOAEL (Rattus norvegicus [1]; reproduction developmental, duration: 167 days, oral, gavage, Sprague-Dawley, generation: F1) of 9000 mg/kg-day, an NOAEL (Oryctolagus sp. [2]; developmental) of 125 mg/kg-day and an NOAEL (Oryctolagus sp. [2]; reproduction developmental, generation: F1) of 125 mg/kg-day. For the same molecule, the LD0 (Oryctolagus sp. [3]) was > 7940 mg/kg.
`Oc1ccccc1Cc1ccccc1O` [2,2'-Bisphenol F] was tested, and the LOEL (Cavia porcellus [4]; BALF eosinophil peroxidase activity + BALF histamine activity + BALF total leukocytes + specific airway resistance (sRaw) - immediate …) was 12.5 mg/kg-day, the LOEL (Cavia porcellus [4]; BALF phospholipase A2 activity) was 50 mg/kg-day and the NOEL (Cavia porcellus [4]; BALF phospholipase A2 activity) was 25 mg/kg-day. It also gave an LOEL (Rattus norvegicus [5]) of 200 mg/kg-day, an NOEL (Rattus norvegicus [5]) of 20 mg/kg-day and an LEL (Rattus norvegicus [6]; uterotrophic, duration: 3 days, injection, subcutaneous, Active) of 46.5 mg/kg-day.
For `O.O.[Na+].[Na+].[O]=[Mo](=[O])([O-])[O-]` [Sodium molybdate (Na2MoO4) dihydrate], the LOAEL (Gallus gallus) was 35.3 mg/kg-day and the NOAEL (Gallus gallus) was 3.5 mg/kg-day.
For `CCCCC(CC)COC(=O)c1ccc(C(=O)OCC(CC)CCCC)c(C(=O)OCC(CC)CCCC)c1` (stereo unspecified) [Tris(2-ethylhexyl) trimellitate], the LD50 (Rattus norvegicus [1]; acute, oral, gavage) was > 3200 mg/kg, the LD50 (Rattus norvegicus [1]; acute, oral, gavage, Crj:CD) was > 2000 mg/kg and the NOAEL (Rattus norvegicus [1]; reproduction developmental, duration: 20 days, oral, gavage, Crj:CD, generation: F1) was 1000 mg/kg-day. It also gave an NOAEL (Rattus norvegicus [1]; reproduction developmental, duration: 20 days, oral, gavage, F, Crj:CD) of 1000 mg/kg-day, an NOAEL (Rattus norvegicus [1]; reproduction developmental, duration: 20 days, oral, gavage, M, Crj:CD) of 100 mg/kg-day and an LOAEL (Rattus norvegicus [1]; [17]) of 650 mg/kg-day. The NOAEL (Rattus norvegicus [1]; [17]) was 184 mg/kg-day, the NOAEL (Rattus norvegicus [1]; short-term, duration: 28 days, oral, gavage, F, Crj:CD) was > 1000 mg/kg-day and the NOAEL (Rattus norvegicus [1]; short-term, duration: 28 days, oral, gavage, M, Crj:CD) was > 1000 mg/kg-day. For the same molecule, the LD50 (Mus musculus; acute, oral, gavage) was > 3200 mg/kg and the LD0 (Rattus norvegicus [7]) was 2600 mg/m3.
For `Clc1cc(Cl)cc(-c2cc(Cl)cc(Cl)c2)c1` [Aroclor 1248], the LOAEL (Macaca mulatta) was 0.1 mg/kg-day and the NOAEL (Macaca mulatta) was 0.01 mg/kg-day.
For `CC1=C[C@H]2O[C@@H]3[C@H](O)C[C@](C)([C@@]2(CO)[C@H](O)C1=O)[C@@]31CO1` [Vomitoxin], the NOEL (Sus scrofa) was 0.25 mg/kg-day.
`N#Cc1c(Cl)c(Cl)c(Cl)c(C#N)c1Cl` [Chlorothalonil] was tested, and the NOAEL (Rattus norvegicus [8]; [18]) was < 100 mg/kg-day, the NOEL (Rattus norvegicus [8]; [18]) was < 100 mg/kg-day and the NOEL (Canidae [9]) was 1.5 mg/kg-day. The LEL (Canidae [10]) was 3 mg/kg-day, the NOEL (Canidae [10]) was 1.5 mg/kg-day and the NOEL (Rattus norvegicus [6]; Hershberger, duration: 10 days, oral, gavage, Sprague-Dawley, inactive + Negative + Negative + neither + see note) was 175 mg/kg-day.
`Cc1ccc(O)cc1` [p-Cresol] showed an NOAEL (Rattus norvegicus [8]; short-term, duration: 28 days, diet, M/F, Fischer 344, Clinical Observation: Hunched posture Rough hair coat + Body Weight Changes: Mean body weight decrease + Food Consumption: decrease + …) of 1000 ppm, an NOAEL (Rattus norvegicus [8]; subchronic, duration: 13 weeks, gavage, M/F, Sprague-Dawley, Deaths + Clinical Observation: Lethargy Tremors Convulsions Coma: + Body Weight Changes: Mean body weight decrease, Body weight gain …) of 50 mg/kg-day and an NOAEL (Oryctolagus sp. [11]) of 5 mg/kg-day.
With `CCOC(=O)C(O)(c1ccc(Cl)cc1)c1ccc(Cl)cc1` [Chlorobenzilate] the NOEL (Oryctolagus sp. [12]) was 5 mg/kg-day, the LEL (Oryctolagus sp. [13]) was 20 mg/kg-day and the NOEL (Oryctolagus sp. [13]) was 5 mg/kg-day.
With `[CH3][Hg][Cl]` [Methylmercuric(II) chloride] the LOAEL (Neovison sp.) was 0.025 mg/kg-day, the NOAEL (Neovison sp.) was 0.015 mg/kg-day and the LOAEL (Rattus norvegicus [14]) was 0.16 mg/kg-day. The NOAEL (Rattus norvegicus [14]) was 0.032 mg/kg-day.
In the case of `COCCl` [Chloromethyl methyl ether], the NOEL (Rattus norvegicus [8]; subchronic, duration: 42 days, gavage, M, CD(SD), Body Weight Changes: decrease + Food Consumption: decrease + Urinalysis: Osm decrease + Hematology: RET increase, WBC increase, LYMPH …) is reported as < 15 mg/kg-day, the LC50 (Rattus norvegicus [1]; acute, inhalation, Sprague-Dawley) is reported as 181 mg/m3 and the LD50 (Rattus norvegicus [1]; acute, oral) is reported as 817 mg/kg. The NOAEL (Rattus norvegicus [1]; developmental, duration: 15 days, inhalation, Sprague-Dawley) was 132 mg/m3, the NOAEL (Rattus norvegicus [1]; reproduction developmental, duration: 10 days, inhalation, F, Sprague-Dawley) was 0.006 mg/L and the LC50 (Cricetulus sp.) was 214 mg/m3.
Work on `C#C` [Ethyne] yielded an NOAEL (Canidae [15]) of 852000 mg/m3, an NOAEL (Rattus norvegicus [1]; repeat dose other, inhalation) of 852000 mg/m3 and an NOAEL (Cavia sp.) of 852000 mg/m3. It also gave an NOAEL (Mus musculus; repeat dose other, inhalation) of 852000 mg/m3.
For `O=[N+]([O-])[O-].[K+]` [Potassium nitrate], the LOAEL (Cavia porcellus [16]) was 1130 mg/kg-day and the NOAEL (Cavia porcellus [16]) was 507 mg/kg-day.
In the case of `ClC1C(Cl)C(Cl)C(Cl)C(Cl)C1Cl` (stereo unspecified) [1,2,3,4,5,6-Hexachlorocyclohexane], the LOAEL (Coturnix japonica) is reported as 2.25 mg/kg-day, the NOAEL (Coturnix japonica) is reported as 0.56 mg/kg-day and the LOAEL (Neovison sp.) is reported as 0.14 mg/kg-day. The NOAEL (Neovison sp.) was 0.014 mg/kg-day.
